Experimental data from ChEMBL document CHEMBL2021851, “Synthesis and SAR studies of imidazo-[1,2-a]-pyrazine Aurora kinase inhibitors with improved off-target kinase selectivity” (Bioorg Med Chem Lett, 2012).
pEC50, pIC50: −log10 of the molar value.

How the values were obtained:
Aurora kinase A = molecular target: T1, Aurora kinase A (Homo sapiens, UniProt O14965); test: Inhibition of aurora A kinase using 5TAMRA-GRTGRRNSICOOH as substrate by fluorescent assay
T1 sequence (O14965 whole entry): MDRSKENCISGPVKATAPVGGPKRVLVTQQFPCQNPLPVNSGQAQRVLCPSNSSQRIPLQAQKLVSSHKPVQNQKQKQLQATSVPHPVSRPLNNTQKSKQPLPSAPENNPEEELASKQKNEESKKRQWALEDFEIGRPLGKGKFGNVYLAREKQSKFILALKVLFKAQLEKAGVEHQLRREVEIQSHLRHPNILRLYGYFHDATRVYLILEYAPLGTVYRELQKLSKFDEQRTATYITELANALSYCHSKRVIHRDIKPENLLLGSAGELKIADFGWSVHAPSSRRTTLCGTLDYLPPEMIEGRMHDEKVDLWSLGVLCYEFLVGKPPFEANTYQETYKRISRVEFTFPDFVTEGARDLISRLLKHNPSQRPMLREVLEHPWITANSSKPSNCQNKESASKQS

Aurora kinase B [1] = molecular target: T2, Aurora kinase B (Homo sapiens, UniProt Q96GD4); test: Inhibition of aurora B kinase using 5TAMRA-GRTGRRNSICOOH as substrate by fluorescent assay
Aurora kinase B [2] = molecular target: T2, Aurora kinase B; test: Inhibition of aurora B kinase in human HCT116 cells assessed as inhibition of histone H3 phosphorylation incubated for 1 hr by Hoechst 33342 staining based microscopic analysis; assay type: cell-based, HCT-116
[3] = molecular target: Vascular endothelial growth factor receptor 2 (Homo sapiens, UniProt P35968); test: Inhibition of VEGFR2
[4] = molecular target: Tyrosine-protein kinase Lck (Homo sapiens, UniProt P06239); test: Inhibition of LCK
[5] = molecular target: T3, Serine/threonine-protein kinase Chk1 (Homo sapiens, UniProt O14757); test: Inhibition of Chk1
T3 sequence (O14757 whole entry): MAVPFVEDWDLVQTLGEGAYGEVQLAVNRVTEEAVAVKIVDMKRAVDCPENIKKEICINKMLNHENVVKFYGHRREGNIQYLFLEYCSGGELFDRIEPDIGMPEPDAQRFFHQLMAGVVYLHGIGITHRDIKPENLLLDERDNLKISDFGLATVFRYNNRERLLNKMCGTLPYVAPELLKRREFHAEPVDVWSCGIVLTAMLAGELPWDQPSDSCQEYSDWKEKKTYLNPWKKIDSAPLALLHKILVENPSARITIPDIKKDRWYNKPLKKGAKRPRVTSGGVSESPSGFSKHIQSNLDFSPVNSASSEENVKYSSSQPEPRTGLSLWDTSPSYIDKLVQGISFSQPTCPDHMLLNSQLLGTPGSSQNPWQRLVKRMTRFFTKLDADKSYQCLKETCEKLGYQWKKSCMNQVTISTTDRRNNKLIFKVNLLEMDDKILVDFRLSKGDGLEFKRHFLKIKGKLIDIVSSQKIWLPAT

[6] = molecular target: T4, Interleukin-1 receptor-associated kinase 4 (Homo sapiens, UniProt Q9NWZ3); test: Inhibition of IRAK4
T4 sequence (Q9NWZ3 whole entry): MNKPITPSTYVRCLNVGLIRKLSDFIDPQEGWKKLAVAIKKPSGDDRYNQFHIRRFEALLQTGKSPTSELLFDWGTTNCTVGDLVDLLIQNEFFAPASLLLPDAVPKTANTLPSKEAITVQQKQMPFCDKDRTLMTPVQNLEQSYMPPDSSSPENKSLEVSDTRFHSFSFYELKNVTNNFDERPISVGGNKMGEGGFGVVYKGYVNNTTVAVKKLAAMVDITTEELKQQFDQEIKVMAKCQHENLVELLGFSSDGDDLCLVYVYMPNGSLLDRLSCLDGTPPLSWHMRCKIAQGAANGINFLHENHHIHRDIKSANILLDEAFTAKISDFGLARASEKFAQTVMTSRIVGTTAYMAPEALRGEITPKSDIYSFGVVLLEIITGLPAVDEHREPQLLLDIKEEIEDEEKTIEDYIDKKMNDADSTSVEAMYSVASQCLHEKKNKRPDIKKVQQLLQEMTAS

[7] = molecular target: Ribosomal protein S6 kinase alpha-3 (Homo sapiens, UniProt P51812); test: Inhibition of RSK2
Ribosomal protein S6 kinase alpha-3, sequence (P51812 whole entry): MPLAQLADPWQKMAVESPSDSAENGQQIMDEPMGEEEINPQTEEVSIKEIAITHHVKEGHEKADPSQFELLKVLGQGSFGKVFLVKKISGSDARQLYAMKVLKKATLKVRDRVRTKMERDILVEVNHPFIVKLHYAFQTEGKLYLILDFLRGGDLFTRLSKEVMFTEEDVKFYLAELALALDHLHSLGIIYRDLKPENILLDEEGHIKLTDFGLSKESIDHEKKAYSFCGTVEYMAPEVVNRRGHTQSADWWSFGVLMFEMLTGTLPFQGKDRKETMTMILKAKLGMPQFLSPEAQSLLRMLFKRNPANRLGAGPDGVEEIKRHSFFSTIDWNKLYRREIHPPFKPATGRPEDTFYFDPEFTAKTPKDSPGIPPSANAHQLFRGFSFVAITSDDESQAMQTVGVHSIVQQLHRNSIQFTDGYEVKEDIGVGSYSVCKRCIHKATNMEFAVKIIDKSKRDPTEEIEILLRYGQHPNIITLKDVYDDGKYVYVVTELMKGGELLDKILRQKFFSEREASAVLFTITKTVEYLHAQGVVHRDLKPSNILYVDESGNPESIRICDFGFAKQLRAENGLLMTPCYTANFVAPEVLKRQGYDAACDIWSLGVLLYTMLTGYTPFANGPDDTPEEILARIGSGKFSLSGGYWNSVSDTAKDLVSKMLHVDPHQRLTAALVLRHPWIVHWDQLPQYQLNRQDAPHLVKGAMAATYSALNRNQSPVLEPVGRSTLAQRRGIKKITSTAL

Vascular endothelial growth factor receptor 2, sequence (P35968 whole entry): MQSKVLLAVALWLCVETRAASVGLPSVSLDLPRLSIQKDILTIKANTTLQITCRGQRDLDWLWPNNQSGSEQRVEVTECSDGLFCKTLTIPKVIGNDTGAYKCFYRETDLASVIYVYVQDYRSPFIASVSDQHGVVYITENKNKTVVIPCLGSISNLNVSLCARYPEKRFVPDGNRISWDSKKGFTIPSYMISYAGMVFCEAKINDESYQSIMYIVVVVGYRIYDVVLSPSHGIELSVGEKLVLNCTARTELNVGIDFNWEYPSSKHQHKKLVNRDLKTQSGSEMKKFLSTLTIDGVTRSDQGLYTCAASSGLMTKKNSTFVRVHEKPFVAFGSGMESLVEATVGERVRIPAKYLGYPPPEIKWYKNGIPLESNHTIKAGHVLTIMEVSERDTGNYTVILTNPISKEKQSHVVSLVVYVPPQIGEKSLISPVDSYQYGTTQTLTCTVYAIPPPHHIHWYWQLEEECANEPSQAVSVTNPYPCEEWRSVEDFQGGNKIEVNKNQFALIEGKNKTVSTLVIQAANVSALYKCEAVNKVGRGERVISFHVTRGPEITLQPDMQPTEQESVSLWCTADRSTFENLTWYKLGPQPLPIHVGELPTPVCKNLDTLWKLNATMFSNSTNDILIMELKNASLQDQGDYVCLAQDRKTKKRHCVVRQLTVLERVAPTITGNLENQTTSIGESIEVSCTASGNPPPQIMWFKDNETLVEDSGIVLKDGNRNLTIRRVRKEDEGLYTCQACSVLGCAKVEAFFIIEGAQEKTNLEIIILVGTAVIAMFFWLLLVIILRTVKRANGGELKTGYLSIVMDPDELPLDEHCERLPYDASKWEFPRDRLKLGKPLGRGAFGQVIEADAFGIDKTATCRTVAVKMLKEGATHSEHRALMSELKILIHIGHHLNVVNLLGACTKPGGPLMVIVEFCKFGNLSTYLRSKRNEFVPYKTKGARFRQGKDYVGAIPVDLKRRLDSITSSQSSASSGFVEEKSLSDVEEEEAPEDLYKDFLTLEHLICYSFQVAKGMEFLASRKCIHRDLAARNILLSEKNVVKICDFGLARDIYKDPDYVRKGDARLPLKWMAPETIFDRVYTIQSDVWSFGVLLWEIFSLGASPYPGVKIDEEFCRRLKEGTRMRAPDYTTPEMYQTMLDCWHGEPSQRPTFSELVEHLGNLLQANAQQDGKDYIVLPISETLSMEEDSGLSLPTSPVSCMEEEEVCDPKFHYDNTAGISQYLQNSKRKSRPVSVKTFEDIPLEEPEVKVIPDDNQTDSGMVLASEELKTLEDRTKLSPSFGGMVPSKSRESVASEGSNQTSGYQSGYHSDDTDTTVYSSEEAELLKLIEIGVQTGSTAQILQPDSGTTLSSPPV
T2 sequence (Q96GD4 whole entry): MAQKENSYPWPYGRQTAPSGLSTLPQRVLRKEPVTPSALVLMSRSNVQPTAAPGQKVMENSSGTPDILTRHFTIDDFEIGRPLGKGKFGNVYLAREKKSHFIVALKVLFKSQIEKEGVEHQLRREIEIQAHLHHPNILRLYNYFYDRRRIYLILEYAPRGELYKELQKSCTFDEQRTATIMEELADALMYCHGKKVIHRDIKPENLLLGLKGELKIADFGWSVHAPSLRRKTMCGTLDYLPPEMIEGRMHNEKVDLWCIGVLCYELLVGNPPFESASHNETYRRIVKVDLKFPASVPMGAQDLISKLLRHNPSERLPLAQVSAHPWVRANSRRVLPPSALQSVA
Tyrosine-protein kinase Lck, sequence (P06239 whole entry): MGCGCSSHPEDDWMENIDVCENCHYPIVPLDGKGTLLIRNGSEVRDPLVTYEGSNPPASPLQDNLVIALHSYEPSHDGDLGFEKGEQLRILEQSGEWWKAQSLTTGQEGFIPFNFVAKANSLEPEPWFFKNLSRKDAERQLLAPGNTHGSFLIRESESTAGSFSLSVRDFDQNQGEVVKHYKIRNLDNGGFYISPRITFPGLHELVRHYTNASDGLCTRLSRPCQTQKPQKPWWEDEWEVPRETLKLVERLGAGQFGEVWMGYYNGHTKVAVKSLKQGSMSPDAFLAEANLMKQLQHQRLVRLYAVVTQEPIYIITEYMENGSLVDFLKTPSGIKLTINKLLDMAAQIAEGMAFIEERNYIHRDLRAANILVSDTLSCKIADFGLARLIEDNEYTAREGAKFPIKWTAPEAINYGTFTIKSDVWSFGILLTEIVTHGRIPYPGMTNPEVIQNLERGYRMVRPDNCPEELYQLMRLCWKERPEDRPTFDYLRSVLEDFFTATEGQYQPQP

| SMILES | pIC50 (Aurora kinase A) | pIC50 (Aurora kinase B [1]) | pEC50 (Aurora kinase B [2]) | pIC50 [3] | pIC50 [4] | pIC50 [5] | pIC50 [6] | pIC50 [7] |
| --- | --- | --- | --- | --- | --- | --- | --- | --- |
| Cc1cn2c(-c3cnn(CC(=O)NCc4cccc(N(C)C)c4)c3)cnc2c(Nc2cc(CN3CCCC(C)C3)ns2)n1 (stereo not given) | 6.07 | 6.81 |  |  |  |  |  |  |
| COc1cccc(CNC(=O)Cn2cc(-c3cnc4c(Nc5cc(CN6CCCC(C)C6)ns5)nc(C)cn34)cn2)c1 (stereo not given) | 7.24 | 7.39 | 6.35 |  |  |  |  |  |
| Cc1cn2c(-c3cnn(CC(=O)Nc4ccncc4F)c3)cnc2c(Nc2cc(CN3CCCC(C)C3)ns2)n1 (stereo not given) | > 8.40 | ≥ 7.89 | 7.21 | 6.60 | 6.57 | 6.52 | 5.91 | 5.17 |
| Cc1cn2c(-c3cnn(CC(=O)NCc4ccco4)c3)cnc2c(Nc2cc(CN3CCCC(C)C3)ns2)n1 (stereo not given) | 6.67 | 7.15 |  |  |  |  |  |  |
| Cc1cn2c(-c3cnn(CC(=O)Nc4cc[n+]([O-])cc4)c3)cnc2c(Nc2cc(CN3CCCC(C)C3)ns2)n1 (stereo not given) | 7.17 | 7.04 | 6.40 |  |  |  |  |  |
| Cc1cn2c(-c3cnn(CC(=O)Nc4cccnn4)c3)cnc2c(Nc2cc(CN3CCCC(C)C3)ns2)n1 (stereo not given) | 6.20 | 7.35 | 6.02 |  |  |  |  |  |
| Cc1cn2c(-c3cnn(CC(=O)Nc4ccc(F)cc4)c3)cnc2c(Nc2cc(CN3CCCCC3)ns2)n1 | 7.28 | 7.52 | 6.39 |  |  |  |  |  |
| Cc1cn2c(-c3cnn(CC(=O)Nc4cc(F)cc(F)c4)c3)cnc2c(Nc2cc(CN3CCCCC3)ns2)n1 | 5.91 | 7.03 | 5.62 |  |  |  |  |  |
| Cc1cn2c(-c3cnn(CC(=O)NCc4ccccc4)c3)cnc2c(Nc2cc(CN3CCCC(C)C3)ns2)n1 (stereo not given) | 7.68 | ≥ 7.89 | 6.89 |  |  |  |  |  |
| Cc1cn2c(-c3cnn(CC(=O)NCc4cccs4)c3)cnc2c(Nc2cc(CN3CCCC(C)C3)ns2)n1 (stereo not given) | 7.57 | ≥ 7.89 | 6.71 | 6.63 | 6.24 | 6.52 | 6.06 | 5.11 |
| Cc1cn2c(-c3cnn(CC(=O)Nc4cccc(F)c4)c3)cnc2c(Nc2cc(CN3CCCCC3)ns2)n1 | 6.47 | ≥ 7.89 | 6.05 |  |  |  |  |  |
| Cc1cn2c(-c3cnn(Cc4noc(-c5ccccc5)n4)c3)cnc2c(Nc2cc(CN3CCCCC3)ns2)n1 | ≥ 8.40 | ≥ 7.89 | < 6.00 |  |  |  |  |  |
| Cc1cn2c(-c3cnn(CC(=O)NCc4cccc(C(F)(F)F)c4)c3)cnc2c(Nc2cc(CN3CCCC(C)C3)ns2)n1 (stereo not given) | 6.38 | 7.46 | < 6.00 |  |  |  |  |  |
| Cc1cn2c(-c3cnn(CC(=O)Nc4ccccc4F)c3)cnc2c(Nc2cc(CN3CCCCC3)ns2)n1 | 6.70 | 7.46 | 6.41 |  |  |  |  |  |
| Cc1cn2c(-c3cnn(CC(=O)O)c3)cnc2c(Nc2cc(CN3CCCCC3)ns2)n1 | 5.74 | 6.44 |  |  |  |  |  |  |
| Cc1cn2c(-c3cnn(CC(=O)Nc4cccc(F)c4F)c3)cnc2c(Nc2cc(CN3CCCCC3)ns2)n1 | 6.91 | ≥ 7.89 | 7.24 | 6.32 | < 5.52 | 7.70 | 5.85 | 5.37 |
| Cc1cn2c(-c3cnn(Cc4nc(-c5ccccc5)c[nH]4)c3)cnc2c(Nc2cc(CN3CCCCC3)ns2)n1 | 6.23 | 7.68 | 6.05 |  |  |  |  |  |
| Cc1cn2c(-c3cnn(CC(=O)N4CCOCC4)c3)cnc2c(Nc2cc(CN3CCCCC3)ns2)n1 | < 5.52 | < 5.52 |  |  |  |  |  |  |
| Cc1cn2c(-c3cnn(CC(=O)NCCN(C)C)c3)cnc2c(Nc2cc(CN3CCCC(C)C3)ns2)n1 (stereo not given) | < 5.52 | 6.12 |  |  |  |  |  |  |
| Cc1cn2c(-c3cnn(CC(=O)NCc4ccncc4)c3)cnc2c(Nc2cc(CN3CCCC(C)C3)ns2)n1 (stereo not given) | 5.61 | 5.96 |  |  |  |  |  |  |
| Cc1cn2c(-c3cnn(CC(=O)Nc4cccnc4F)c3)cnc2c(Nc2cc(CN3CCCC(C)C3)ns2)n1 (stereo not given) | 6.12 | 7.09 | 6.96 |  |  |  |  |  |
| Cc1cn2c(-c3cnn(CC(=O)Nc4ccccn4)c3)cnc2c(Nc2cc(CN3CCCC(C)C3)ns2)n1 (stereo not given) | 6.73 | 7.49 | 6.55 |  |  |  |  |  |
